Assay results as given in patent publication US10501438B2, “Aryl-substituted dihydroquinolinones, their preparation and their use as pharmaceuticals” (NEOMED Institute, priority 2015, dated 2019).

Test system: human C-Myc transcription in MV-4-11 cells
Assay: Transcription of human C-Myc in human leukemic MV-4-11 cells (QuantiGene 2.0)
Assay type: cell-based
Conditions: Homo sapiens, MV4-11, 4 h, inhibition of C-Myc mRNA, 4 hours treatment
Experimental: b) Transcription of Human C-Myc in Human Leukemic MV-4-11 Cells:
The effect of compounds on transcription of human C-Myc gene is monitored in human B-myelomonocytic leukemia cell line MV-4-11 (from American Type Culture Collection (ATCC), Manassas, Va., USA) using QuantiGene 2.0 assay kit (Affymetrix, Santa Clara, Calif., USA).
Typically, 8,000 MV-4-11 cells are plated in sterile 96-well plates (Costar #3598 from Fisher Scientific Canada, Ottawa, Ontario, Canada) in Iscove's medium supplemented with 10% fetal bovine serum, glutamine (2 mM), and penicillin (100 I.U.) and streptomycin (100 μg/mL) (all from Wisent Inc., St. Bruno, Quebec, Canada). Compounds are dissolved in DMSO at 30 mM. A series of 1:3 dilutions are first made in DMSO, and further 1:100 dilutions are made in serum-containing cell culture media. The final concentration of DMSO is 0.1% in cell culture media. After cells are treated with various concentrations of test compound for 4 hours, cells are lysed using Quantigene 2.0 sample processing kit (#QS0100). C-Myc mRNA is detected using a QuantiGene 2.0 assay kit (#QS0009) with gene-specific probe to human C-Myc (#SA-50182) following the manufacturer's recommendations. Luminescene signals are read on Flexstation II microplate reader (Molecular Devices, Sunnyvale, Calif., USA).

IC50 [nM] | SMILES
2680 | Cc1cc(-c2cc3c(cc2Cc2cccnc2)CCC(=O)N3)cn(C)c1=O [Compound 101, 7-(1,5-dimethyl-6-oxo-1,6-dihydropyridin-3-yl)-6-(pyridin-3-ylmethyl)-3,4-dihydroquinolin-2(1H)-one]
100 | Cc1cc(-c2cc3c(c(NCc4cccnc4)c2)NC(=O)CC3)cn(C)c1=O [Compound 78, 6-(1,5-dimethyl-6-oxo-1,6-dihydropyridin-3-yl)-8-(pyridyl-3-ylmethylamino)-3,4-dihydro-1H-quinolin-2-one]
510 | Cc1cc(-c2cc3c(c(OCc4cocn4)c2)NC(=O)CC3)cn(C)c1=O [Compound 84, 6-(1,5-dimethyl-6-oxo-1,6-dihydropyridin-3-yl)-8-(oxazol-4-ylmethoxy)-3,4-dihydroquinolin-2(1H)-one]
150 | Cc1cc(-c2cc3c(c(OCc4cccnc4)c2)NC(=O)CC3)cn(C)c1=O [Compound 25, 6-(1,5-dimethyl-6-oxo-1,6-dihydropyridin-3-yl)-8-(pyridin-3-ylmethoxy)-3,4-dihydroquinolin-2(1H)-one]
370 | Cc1cc(-c2ccc3c(c2Cc2cccc(F)c2)CCC(=O)N3)cn(C)c1=O [Compound 86, 6-(1,5-dimethyl-6-oxo-1,6-dihydropyridin-3-yl)-5-(3-fluorobenzyl)-3,4-dihydroquinolin-2(1H)-one]
790 | Cc1cc(-c2cc3c(c(CN(C)C4CCCC4)c2)NC(=O)CC3)cn(C)c1=O [Compound 97, 8-((cyclopentyl(methyl)amino)methyl)-6-(1,5-dimethyl-6-oxo-1,6-dihydropyridin-3-yl)-3,4-dihydroquinolin-2(1H)-one]
550 | Cc1cc(-c2cc3c(c(OCc4cnccn4)c2)NC(=O)CC3)cn(C)c1=O [Compound 52, 6-(1,5-dimethyl-6-oxo-1,6-dihydropyridin-3-yl)-8-(pyrazin-2-ylmethoxy)-3,4-dihydroquinolin-2(1H)-one]
2230 | Cc1cc(-c2cc3c(cc2Cc2ccccn2)CCC(=O)N3)cn(C)c1=O [Compound 32, 7-(1,5-dimethyl-6-oxo-1,6-dihydropyridin-3-yl)-6-(pyridin-2-ylmethyl)-3,4-dihydroquinolin-2(1H)-one]
270 | Cc1cc(-c2ccc3c(c2Cc2ccncc2)CCC(=O)N3)cn(C)c1=O [Compound 59, 6-(1,5-dimethyl-6-oxo-1,6-dihydropyridin-3-yl)-5-(pyridin-4-ylmethyl)-3,4-dihydroquinolin-2(1H)-one]
250 | Cc1cc(-c2ccc3c(c2Cc2ccccc2)NC(=O)CC3)cn(C)c1=O [Compound 30, 8-benzyl-7-(1,5-dimethyl-6-oxo-1,6-dihydropyridin-3-yl)-3,4-dihydroquinolin-2(1H)-one]
8560 | Cc1cc(-c2ccc3c(c2COC2CCCC2)CCC(=O)N3)cn(C)c1=O [Compound 68, 5-((cyclopentyloxy)methyl)-6-(1,5-dimethyl-6-oxo-1,6-dihydropyridin-3-yl)-3,4-dihydroquinolin-2(1H)-one]
410 | Cc1cc(-c2cc3c(c(O[C@H](C)c4ccccn4)c2)NC(=O)CC3)cn(C)c1=O [Compound 74b, (R)-6-(1,5-dimethyl-6-oxo-1,6-dihydropyridin-3-yl)-8-(1-(pyridin-2-yl)ethoxy)-3,4-dihydroquinolin-2(1H)-one]
30 | Cc1cc(-c2ccc3c(c2C(C)c2ccccc2)CCC(=O)N3)cn(C)c1=O (stereo not drawn) [Compound 95, 6-(1,5-dimethyl-6-oxo-1,6-dihydropyridin-3-yl)-5-(1-phenylethyl)-3,4-dihydroquinolin-2(1H)-one]
940 | Cc1cc(-c2cc3c(c(COC4CCOCC4)c2)NC(=O)CC3)cn(C)c1=O [Compound 47, 6-(1,5-dimethyl-6-oxo-1,6-dihydropyridin-3-yl)-8-(((tetrahydro-2H-pyran-4-yl)oxy)methyl)-3,4-dihydroquinolin-2(1H)-one]
100 | Cc1cc(-c2ccc3c(c2Cc2ccc(F)cc2)CCC(=O)N3)cn(C)c1=O [Compound 91, 6-(1,5-dimethyl-6-oxo-1,6-dihydropyridin-3-yl)-5-(4-fluorobenzyl)-3,4-dihydroquinolin-2(1H)-one]
190 | Cc1cc(-c2cc3c(c(OCC4CCCC4)c2)NC(=O)CC3)cn(C)c1=O [Compound 29, 8-(cyclopentylmethoxy)-6-(1,5-dimethyl-6-oxo-1,6-dihydropyridin-3-yl)-3,4-dihydroquinolin-2(1H)-one]
> 6140 | Cc1cc(-c2cc3c(c(OCC4CCOCC4)c2)NC(=O)CC3)cn(C)c1=O [Compound 72, 6-(1,5-dimethyl-6-oxo-1,6-dihydropyridin-3-yl)-8-((tetrahydro-2H-pyran-4-yl)methoxy)-3,4-dihydroquinolin-2(1H)-one]
250 | Cc1cc(-c2cc3c(c(OCc4cscn4)c2)NC(=O)CC3)cn(C)c1=O [Compound 82, 6-(1,5-dimethyl-6-oxo-1,6-dihydropyridin-3-yl)-8-(thiazol-4-ylmethoxy)-3,4-dihydroquinolin-2(1H)-one]
540 | Cc1cc(-c2ccc3c(c2COC2CCCC2)NC(=O)CC3)cn(C)c1=O [Compound 38, 8-((cyclopentyloxy)methyl)-7-(1,5-dimethyl-6-oxo-1,6-dihydropyridin-3-yl)-3,4-dihydroquinolin-2(1H)-one]
240 | Cn1cc(-c2cc3c(c(OCc4ccccn4)c2)NC(=O)CC3)cc(Cl)c1=O [Compound 79, 6-(5-chloro-1-methyl-6-oxo-1,6-dihydropyridin-3-yl)-8-(pyridin-2-ylmethoxy)-3,4-dihydroquinolin-2(1H)-one]
610 | Cc1cc(-c2cc(COC3CCCC3)c3c(c2)NC(=O)CC3)cn(C)c1=O [Compound 100, 5-((cyclopentyloxy)methyl)-7-(1,5-dimethyl-6-oxo-1,6-dihydropyridin-3-yl)-3,4-dihydroquinolin-2(1H)-one]
250 | Cc1cc(-c2cc3c(c(N(C)Cc4ccccc4)c2)NC(=O)CC3)cn(C)c1=O [Compound 5, 8-[benzyl(methyl)amino]-6-(1,5-dimethyl-6-oxo-3-pyridyl)-3,4-dihydro-1H-quinolin-2-one]
510 | Cc1cc(-c2cc3c(c(OCc4nccs4)c2)NC(=O)CC3)cn(C)c1=O [Compound 83, 6-(1,5-dimethyl-6-oxo-1,6-dihydropyridin-3-yl)-8-(thiazol-2-ylmethoxy)-3,4-dihydroquinolin-2(1H)-one]
120 | Cc1cc(-c2cc3c(c(O[C@@H](C)c4ccccn4)c2)NC(=O)CC3)cn(C)c1=O [Compound 74a, (S)-6-(1,5-dimethyl-6-oxo-1,6-dihydropyridin-3-yl)-8-(1-(pyridin-2-yl)ethoxy)-3,4-dihydroquinolin-2(1H)-one]
280 | Cc1cc(-c2cc3c(c(OCc4ccccn4)c2)NC(=O)CC3)cn(C)c1=O [Compound 26, 6-(1,5-dimethyl-6-oxo-1,6-dihydropyridin-3-yl)-8-(pyridin-2-ylmethoxy)-3,4-dihydroquinolin-2(1H)-one]
90 | CC(=O)N(Cc1cc(-c2cc(C)c(=O)n(C)c2)cc2c1NC(=O)CC2)C1CCCC1 [Compound 98, N-cyclopentyl-N-((6-(1,5-dimethyl-6-oxo-1,6-dihydropyridin-3-yl)-2-oxo-1,2,3,4-tetrahydroquinolin-8-yl)methyl)acetamide]
790 | Cc1cc(-c2cc3c(c(OCC4CCC4)c2)NC(=O)CC3)cn(C)c1=O [Compound 20, 8-(cyclobutylmethoxy)-6-(1,5-dimethyl-6-oxo-1,6-dihydropyridin-3-yl)-3,4-dihydroquinolin-2(1H)-one]

SMILES | IC50 [nM]
Cc1cc(-c2ccc3c(c2COC2CCC2)CCC(=O)N3)cn(C)c1=O [Compound 67, 5-(cyclobutoxymethyl)-6-(1,5-dimethyl-6-oxo-1,6-dihydropyridin-3-yl)-3,4-dihydroquinolin-2(1H)-one] | 2030
Cc1cc(-c2ccc3c(c2COC2CCC2)NC(=O)CC3)cn(C)c1=O [Compound 39, 8-(cyclobutoxymethyl)-7-(1,5-dimethyl-6-oxo-1,6-dihydropyridin-3-yl)-3,4-dihydroquinolin-2(1H)-one] | 9850

Same assay, conditions: inhibition of C-Myc mRNA, 4 hours treatment

IC50 [nM] | SMILES
800 | Cc1cc(-c2cc3c(c(OCC4CCCCO4)c2)NC(=O)CC3)cn(C)c1=O (stereo not drawn) [Compound 55b, 6-(1,5-dimethyl-6-oxo-1,6-dihydropyridin-3-yl)-8-((tetrahydro-2H-pyran-2-yl)methoxy)-3,4-dihydroquinolin-2(1H)-one]
2740 | Cc1cc(-c2cc3c(c(COC4CCCOC4)c2)NC(=O)CC3)cn(C)c1=O (stereo not drawn) [Compound 48b, 6-(1,5-dimethyl-6-oxo-1,6-dihydropyridin-3-yl)-8-(((tetrahydro-2H-pyran-3-yl)oxy)methyl)-3,4-dihydroquinolin-2(1H)-one]
800 | Cc1cc(-c2cc3c(c(OCC4CCCOC4)c2)NC(=O)CC3)cn(C)c1=O (stereo not drawn) [Compound 54b, 6-(1,5-dimethyl-6-oxo-1,6-dihydropyridin-3-yl)-8-((tetrahydro-2H-pyran-3-yl)methoxy)-3,4-dihydroquinolin-2(1H)-one]
90 | Cc1cc(-c2cc3c(c(OC(C)c4cccnc4)c2)NC(=O)CC3)cn(C)c1=O (single isomer, unassigned) [Compound 92a, 6-(1,5-dimethyl-6-oxo-1,6-dihydropyridin-3-yl)-8-(1-(pyridin-3-yl)ethoxy)-3,4-dihydroquinolin-2(1H)-one]
